Measured values reported in ChEMBL document CHEMBL1151587, “Development of new non-peptide GPIIb/IIIa antagonists, NSL-95315 and NSL-95317, isosteres of NSL-95300” (Bioorg Med Chem Lett, 1997).

Species on record: Homo sapiens
Test: Concentration required to inhibit collagen-induced platelet aggregation in human platelet rich plasma (PRP)
Assay type: functional

Structure (SMILES) | IC50 [nM]
CC(C)(/C=C/C(O)c1ccc(C(=N)N)cc1)C(=O)N1CCC(CC(=O)O)CC1 (configuration not stated) | 7600
CC(C)(C(=O)/C=C/c1ccc(C(=N)N)cc1)C(=O)N1CCC(CC(=O)O)CC1 | 3500
CC(C)(CCC(=O)c1ccc(C(=N)N)cc1)C(=O)N1CCC(CC(=O)O)CC1 | 630
CCCCCCOC(/C=C/c1ccc(C(=N)N)cc1)C(C)(C)C(=O)N1CCC(CC(=O)O)CC1 (configuration not stated) | 1600
CC(C)(C(=O)N1CCC(CC(=O)O)CC1)/C(O)=C/C(=O)c1ccc(C(=N)N)cc1 | 600000
CC(C)(C(=O)N1CCC(CC(=O)O)CC1)C(/C=C/c1ccc(C(=N)N)cc1)OCc1ccccc1 (configuration not stated) | 730
CC(C)(C(=O)N1CCC(CC(=O)O)CC1)C(O)/C=C/c1ccc(C(=N)N)cc1 (configuration not stated) | 600

These reach a lower IC50. Values come first.

IC50 [nM] | Structure (SMILES)
270 | C#CCOC(/C=C/c1ccc(C(=N)N)cc1)C(C)(C)C(=O)N1CCC(CC(=O)O)CC1 (configuration not stated)
250 | COC(/C=C/c1ccc(C(=N)N)cc1)C(C)(C)C(=O)N1CCC(CC(=O)O)CC1 (configuration not stated)
210 | CC(C)(/C=C/C(=O)c1ccc(C(=N)N)cc1)C(=O)N1CCC(CC(=O)O)CC1
260 | CCOC(/C=C/c1ccc(C(=N)N)cc1)C(C)(C)C(=O)N1CCC(CC(=O)O)CC1 (configuration not stated)
480 | COC(CCc1ccc(C(=N)N)cc1)C(C)(C)C(=O)N1CCC(CC(=O)O)CC1 (configuration not stated)
